Test results: US8822460B2, “Fused cyclopentyl antagonists of CCR2” (Janssen Pharmaceutica, NV, priority 2012, dated 2014)
Several values for one entry are separate records, joined by “and”; a condition that tells them apart may be missing. Identical values can stand only once. Counter-ions that a name gives are not always drawn. One block for each compound: values may come before it.

Experiments:
[1] = Moisture sorption/desorption analysis; type: physicochemical; settings: for total hygroscopic weight increase (uptake): up to 90% RH
Description: The crystalline phosphate, sulfate and maleate salts of the compound of formula (I-S) were additional tested in DSC, TGA and moisture sorption/desorption. […] The moisture sorption analysis was performed using Hiden Isochema system Model IGAsorp. The sample (˜5 mg) was run in a stainless-steel mesh crucible. […] The moisture profile consisted of 2 cycles of vapor adsorption/desorption.

CCR2 = CCR2 (Homo sapiens (Human), UniProt P41597); assay: MCP-1 Receptor Binding Assay in THP-1 Cells; settings: stated as 'believed to have', approximate ('about')
Description: Human monocytic cell line THP-1 cells were obtained from American Type Culture Collection (Manassas, Va., USA). […] The cell density was maintained […].
1 μM cold MCP-1 was used for nonspecific binding.

hCCR2KI mice = assay: animal or person; type: in vivo, mouse
[2] = system: high-fat diet induced obese mice; assay: High-Fat Diet Induced Obesity and Insulin Resistance in Mice
Solution solubility = settings: thermodynamic from solid

CCR2, sequence (P41597 whole entry): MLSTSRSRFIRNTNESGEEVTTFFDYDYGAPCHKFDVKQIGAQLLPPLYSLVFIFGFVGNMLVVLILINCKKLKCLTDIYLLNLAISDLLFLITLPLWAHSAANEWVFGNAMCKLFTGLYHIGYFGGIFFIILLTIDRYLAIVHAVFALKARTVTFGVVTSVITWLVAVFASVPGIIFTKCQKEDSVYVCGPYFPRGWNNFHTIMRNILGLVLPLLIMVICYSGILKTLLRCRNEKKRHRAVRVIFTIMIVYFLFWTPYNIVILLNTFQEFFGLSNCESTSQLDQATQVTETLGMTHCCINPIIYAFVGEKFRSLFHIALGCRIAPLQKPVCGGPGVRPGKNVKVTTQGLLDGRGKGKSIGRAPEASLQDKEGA

Structure (SMILES): CO[C@@H]1COCC[C@@H]1N[C@@H]1C[C@H]2OCC[C@@]2(C(=O)N2CCc3ncc(C(F)(F)F)cc3C2)C1 [maleate salt, ((3aS,5S,6aR)-5-(((3S,4S)-3-methoxytetrahydro-2H-pyran-4-yl)amino)hexahydro-2H-cyclopenta[b]furan-3a-yl)(3-(trifluoromethyl)-7,8-dihydro-1,6-naphthyridin-6(5H)-yl)methanone]
- hygroscopic weight increase ([1]; up to 70% RH): 18.3%
- total hygroscopic weight increase (uptake) [1]: 79.9%

Structure (SMILES): COC1COCCC1N[C@@H]1C[C@H]2OC(C3CCCCC3)C[C@@]2(C(=O)N2CCc3ncc(C(F)(F)F)cc3C2)C1 (stereo partly drawn) [Example 15, ((3aS,5S,6aR)-2-cyclohexyl-5-((3-methoxytetrahydro-2H-pyran-4-yl)amino)hexahydro-2H-cyclopenta[b]furan-3a-yl)(3-(trifluoromethyl)-7,8-dihydro-1,6-naphthyridin-6(5H)-yl)methanone]
- IC50 (CCR2): < 50 nM

Structure (SMILES): COC1COCCC1N[C@@H]1C[C@H]2OC(CC(C)C)C[C@@]2(C(=O)N2CCc3ncc(C(F)(F)F)cc3C2)C1 (stereo partly drawn) [Example 14, ((3aS,5S,6aR)-2-isobutyl-5-((3-methoxytetrahydro-2H-pyran-4-yl)amino)hexahydro-2H-cyclopenta[b]furan-3a-yl)(3-(trifluoromethyl)-7,8-dihydro-1,6-naphthyridin-6(5H)-yl)methanone]
- IC50 (CCR2): 50 to 100 nM

Structure (SMILES): CO[C@@H]1COCC[C@@H]1N[C@@H]1C[C@H]2OCC[C@@]2(C(=O)N2CCc3ncc(C(F)(F)F)cc3C2)C1 [phosphate salt, ((3aS,5S,6aR)-5-(((3S,4S)-3-methoxytetrahydro-2H-pyran-4-yl)amino)hexahydro-2H-cyclopenta[b]furan-3a-yl)(3-(trifluoromethyl)-7,8-dihydro-1,6-naphthyridin-6(5H)-yl)methanone]
- hygroscopic weight increase ([1]; up to 60% RH): 3.3%
- total hygroscopic weight increase (uptake) [1]: 69.4%

Structure (SMILES): CO[C@@H]1COCC[C@@H]1N[C@@H]1C[C@H]2OCC[C@@]2(C(=O)N2CCc3ncc(C(F)(F)F)cc3C2)C1.O=C(O)CCC(=O)O [Example 30, ((3aS,5S,6aR)-5-((3S,4S)-3-methoxytetrahydro-2H-pyran-4-ylamino)hexahydro-2H-cyclopenta[b]furan-3a-yl)(3-(trifluoromethyl)-7,8-dihydro-1,6-naphthyridin-6(5H)-yl)methanone succinate]
- EC50 (hCCR2KI mice; Mus musculus, 0.5 h, read-out: cmax EC50 in plasma): 97 nM
- inhibition of thioglycollate induced cellular infiltrate (hCCR2KI mice; mouse, in vivo, succinate): 51% and 67% and 95%
- reduction of high fat-diet induced body weight ([2]; 1 mg/kg p.o. bid, after 32-days treatment (p>0.05)): 4.94%
- reduction of high fat-diet induced body weight ([2]; 3 mg/kg p.o. bid, after 32-days treatment (p<0.01)): 10.94%
- reduction of high fat-diet induced body weight ([2]; 10 mg/kg p.o. bid, after 32-days treatment (p<0.01)): 15.7%

Structure (SMILES): CO[C@@H]1COCC[C@@H]1N[C@@H]1C[C@H]2OCC[C@@]2(C(=O)N2CCc3ncc(C(F)(F)F)cc3C2)C1.O=C(O)CCC(=O)O [((3aS,5S,6aR)-5-(((3S,4S)-3-methoxytetrahydro-2H-pyran-4-yl)amino)hexahydro-2H-cyclopenta[b]furan-3a-yl)(3-(trifluoromethyl)-7,8-dihydro-1,6-naphthyridin-6(5H)-yl)methanone]
- moisture retained at the end of the desorption phase ([1]; multiple sorption/desorption cycles, 25° C.): about 2.7%
- hygroscopic weight increase ([1]; up to 70% RH): 3.8%
- total hygroscopic weight increase (uptake) [1]: 70%
- solubility (Solution solubility; 0.1N NaOH, aqueous buffer): > 100 mg/mL
- solubility (Solution solubility; 0.5% methocel, aqueous with cosolvent or surfactant or cyclodextrin): > 100 mg/mL
- solubility (Solution solubility; 20% HpbCD, aqueous with cosolvent or surfactant or cyclodextrin): > 100 mg/mL
- solubility (Solution solubility; borate buffer, pH 8, aqueous buffer): > 100 mg/mL
- solubility (Solution solubility; borate buffer, pH 10, aqueous buffer): > 100 mg/mL
- solubility (Solution solubility; citrate buffer, pH 2, aqueous buffer): > 100 mg/mL
- solubility (Solution solubility; citrate buffer, pH 4, aqueous buffer): > 100 mg/mL
- solubility (Solution solubility; citrate buffer, pH 6, aqueous buffer): > 100 mg/mL
- solubility (Solution solubility; simulated gastric fluid): > 100 mg/mL
- solubility (Solution solubility; simulated intestinal fluid, fassgf or other biorelevant): > 100 mg/mL
- solubility (Solution solubility; water): > 50 mg/mL

Structure (SMILES): COC1COCCC1N[C@@H]1C[C@H]2OC(c3ccnn3C)C[C@@]2(C(=O)N2CCc3ncc(C(F)(F)F)cc3C2)C1 (stereo partly drawn) [Example 17, ((3aS,5S,6aR)-5-((3-methoxytetrahydro-2H-pyran-4-yl)amino)-2-(1-methyl-1H-pyrazol-5-yl)hexahydro-2H-cyclopenta[b]furan-3a-yl)(3-(trifluoromethyl)-7,8-dihydro-1,6-naphthyridin-6(5H)-yl)methanone]
- IC50 (CCR2): 100 to 200 nM

Structure (SMILES): CO[C@@H]1COCC[C@@H]1N[C@@H]1C[C@H]2OCC[C@@]2(C(=O)N2CCc3ncc(C(F)(F)F)cc3C2)C1 [sulfate salt, ((3aS,5S,6aR)-5-(((3S,4S)-3-methoxytetrahydro-2H-pyran-4-yl)amino)hexahydro-2H-cyclopenta[b]furan-3a-yl)(3-(trifluoromethyl)-7,8-dihydro-1,6-naphthyridin-6(5H)-yl)methanone]
- hygroscopic weight increase ([1]; up to 60% RH): 1.6%
- total hygroscopic weight increase (uptake) [1]: 26.5%

Next, values leading:

- IC50 (CCR2): > 200 nM
Structure (SMILES): COCCOCCOCCOCCCN([C@@H]1C[C@H]2OCC[C@@]2(C(=O)N2CCc3ncc(C(F)(F)F)cc3C2)C1)[C@H]1CCOC[C@H]1OC [Example 42, ((3aS,5S,6aR)-5-(((3S,4S)-3-methoxytetrahydro-2H-pyran-4-yl)(2,5,8,11-tetraoxatetradecan-14-yl)amino)hexahydro-2H-cyclopenta[b]furan-3a-yl)(3-(trifluoromethyl)-7,8-dihydro-1,6-naphthyridin-6(5H)-yl)methanone]

- IC50 (CCR2): > 200 nM
Structure (SMILES): CO[C@@H]1COCC[C@@H]1N[C@@H]1C[C@H]2OCC[C@@]2(C(=O)N2CCN(c3ccnc(C(F)(F)F)n3)CC2)C1 [Example 28, ((3aS,5S,6aR)-5-(((3S,4S)-3-methoxytetrahydro-2H-pyran-4-yl)amino)hexahydro-2H-cyclopenta[b]furan-3a-yl)(4-(2-(trifluoromethyl)pyrimidin-4-yl)piperazin-1-yl)methanone]

- IC50 (CCR2): < 50 nM
Structure (SMILES): CN(C)C(=O)c1cccc(C2CCN([C@@H]3C[C@H]4OCC[C@@]4(C(=O)N4COc5ccc(C(F)(F)F)cc5C4)C3)CC2)c1 [Example 39, N,N-dimethyl-3-(1-((3aS,5S,6aR)-3a-(6-(trifluoromethyl)-3,4-dihydro-2H-benzo[e][1,3]oxazine-3-carbonyl)hexahydro-2H-cyclopenta[b]furan-5-yl)piperidin-4-yl)benzamide]

- IC50 (CCR2): > 200 nM
Structure (SMILES): COC1COCCC1N[C@@H]1C[C@H]2OC(c3nccn3C)C[C@@]2(C(=O)N2CCc3ncc(C(F)(F)F)cc3C2)C1 (stereo partly drawn) [Example 18, ((3 aS,5S,6aR)-5-((3-methoxytetrahydro-2H-pyran-4-yl)amino)-2-(1-methyl-1H-imidazol-2-yl)hexahydro-2H-cyclopenta[b]furan-3a-yl)(3-(trifluoromethyl)-7,8-dihydro-1,6-naphthyridin-6(5H)-yl)methanone]

- IC50 (CCR2): > 200 nM
Structure (SMILES): CO[C@@H]1COCC[C@@H]1N[C@@H]1C[C@H]2OCC[C@@]2(C(=O)N2CCN(c3cccc(C(F)(F)F)n3)CC2)C1 [Example 24, ((3 aS,5S,6aR)-5-(((3S,4S)-3-methoxytetrahydro-2H-pyran-4-yl)amino)hexahydro-2H-cyclopenta[b]furan-3a-yl)(4-(6-(trifluoromethyl)pyridin-2-yl)piperazin-1-yl)methanone]

- IC50 (CCR2): < 50 nM
Structure (SMILES): COc1cccc(C2CCN([C@@H]3C[C@H]4OCC[C@@]4(C(=O)N4CCc5ncc(C(F)(F)F)cc5C4)C3)CC2)c1 [Example 33, ((3aS,5S,6aR)-5-(4-(3-methoxyphenyl)piperidin-1-yl)hexahydro-2H-cyclopenta[b]furan-3a-yl)(3-(trifluoromethyl)-7,8-dihydro-1,6-naphthyridin-6(5H)-yl)methanone]

- IC50 (CCR2): 100 to 200 nM
Structure (SMILES): O=C(N1COc2ccc(C(F)(F)F)cc2C1)[C@@]12CCO[C@@H]1C[C@@H](N1CCC(c3ccccc3)CC1)C2 [Example 38, ((3aS,5S,6aR)-5-(4-phenylpiperidin-1-yl)hexahydro-2H-cyclopenta[b]furan-3a-yl)(6-(trifluoromethyl)-2H-benzo[e][1,3]oxazin-3(4H)-yl)methanone]

- IC50 (CCR2): > 200 nM
Structure (SMILES): COCCN([C@@H]1C[C@H]2OCC[C@@]2(C(=O)N2CCc3ncc(C(F)(F)F)cc3C2)C1)[C@H]1CCOC[C@H]1OC [Example 41, ((3aS,5S,6aR)-5-((2-methoxyethyl)((3S,4S)-3-methoxytetrahydro-2H-pyran-4-yl)amino)hexahydro-2H-cyclopenta[b]furan-3a-yl)(3-(trifluoromethyl)-7,8-dihydro-1,6-naphthyridin-6(5H)-yl)methanone]
